We go through five molecules from patent US11084781B2, “Diarylureas as CB1 allosteric modulators” (Research Triangle Institute, priority 2017, dated 2021).

Entries after “also recorded” stand apart in the source; their conditions may differ. Where only a bound is given, the exact number is not on record here.

The target of series [1] is T1, human CB1 receptor (Homo sapiens, UniProt P21554).
T1 construct: host or cells: CHO-RD-HGA16 cells (CHO cells overexpressing promiscuous Galpha16)
The series can be described thus: CB1 calcium mobilization assay (antagonist mode, against EC80 of CP55,940). The class given is cell-based. To be noted: Table 1; against EC80 (100 nM) of CP55,940; mean ± S.E.M.; read-out: CB1 calcium assay IC50. For orientation: A change in cytosolic calcium serves as a functional read-out for many receptors and channels.
Procedure: CHO-RD-HGA16 cells (Molecular Devices, CA) stably expressing the human CB1 receptor were plated into 96-well black-walled assay plates at 25,000 cells/well in 100 μL of Ham's F12 (supplemented with 10% fetal bovine serum, 100 units of penicillin/streptomycin, and 100 μg/mL Normocin) and incubated overnight at 37° C., 5% CO2. Calcium 5 dye (Molecular Devices, CA) was reconstituted according to the manufacturer's instructions. The reconstituted dye was diluted 1:40 in prewarmed (37° C.) assay buffer (1×HBSS, 20 mM HEPES, 2.5 mM probenecid, pH 7.4 at 37° C.). Growth medium was removed, and the cells were gently washed with 100 μL of prewarmed (37° C.) assay buffer. […] After the pretreatment incubation period, the plate was read with a FLIPR Tetra (Molecular Devices, CA). […] Relative fluorescence units (RFU) were plotted against the log of compound concentrations. Data were fit to a three-parameter logistic curve to generate IC50 values (GraphPad Prism 6.0, CA). […] Test compound RFUs were compared to the CP55,940 Emax RFUs to generate % Emax values.
In these assays, CHO cells that overexpress the promiscuous Gα16 protein were engineered to stably express the CB1 or CB2 receptor. Compounds were evaluated for their ability to decrease the mobilization of intracellular calcium levels stimulated by CP55,940.

Series [2] can be described thus: Metabolic stability in rat liver microsomes. Type of series: in vitro ADME. The protocol: Metabolic stability assessment was performed by Paraza Pharma Inc. (Montreal, Canada).
Compounds were incubated with rat liver microsomes at 37° C. for a total of 45 minutes. The reaction was performed at pH 7.4 in 100 mM potassium phosphate buffer containing 0.5 mg/mL of rat liver microsomal protein. Phase I metabolism was assessed by adding NADPH to a final concentration of 1 mM and collecting samples at time points 0, 5, 15, 30 and 45 minutes. All collected samples were quenched 1:1 with ice-cold stop solution (1 μM labetalol and 1 μM glyburide in acetonitrile), and centrifuged to remove precipitated protein. Resulting supernatants were further diluted 1:4 with acetonitrile:water (1:1). Samples were analyzed by LC/MS/MS and calculations for half-life, and in-vitro clearance were accomplished using Microsoft Excel (2007).
Background: Liver microsomes are a subcellular fraction often used to study metabolism.

The test system of series [3] is cocaine-seeking behavior in rats. The experiment in a line: Reinstatement of extinguished cocaine-seeking behavior. Type of series: in vivo, rat. The protocol:
Animals: Adult male Sprague-Dawley rats (Harlan, Indianapolis, Ind.) weighing 280-300 g were used in the study. Animals were housed individually on a 12/12 hr light/dark cycle (behavioral experiments were conducted during the light period) with free access to water and food except during experimental sessions. Animals were maintained and experiments conducted in accordance with the Institutional Animal Care and Use Committee, University at Buffalo, and with the 2011 Guide for the Care and Use of Laboratory Animals (Institute of Laboratory Animal Resources on Life Sciences, National Research Council, National Academy of Sciences, Washington D.C.).
Drug self-administration, extinction and reinstatement: The reinstatement procedure was described in detail elsewhere^37, 38. Briefly, rats were surgically implanted with a chronic indwelling jugular catheter. After one-week recovery, rats were trained to press the active lever (left lever) for infusion of cocaine (0.75 mg/kg/inf) under a fixed ratio [FR] schedule (starting FR=1, which was increased to FR 5 within 5 training sessions) schedule during daily 2-hr sessions for 14 days. Reinforcer deliveries were accompanied by the presentation of a stimulus light over the active lever followed by a 30-s time-out period during which lever presses had no programmed consequence. Following acquisition of cocaine self-administration, extinction of drug-seeking behavior took place during 2-hr daily sessions in which lever pressing produced no consequence. All other conditions remained unchanged. After 7 days of extinction, all rats reached the extinction criteria (total responses less than 20% of the training sessions).
Drug-induced reinstatement test was conducted on the day following the last extinction session. Rats were pretreated with vehicle, compounds 2 (15, 30 mg/kg) or 34 (10 mg/kg) 10 min prior to a priming injection of cocaine (10 mg/kg, i.p.) administered immediately before the start of the reinstatement session.
Data analyses: Data are expressed as mean±S.E.M. Differences in active lever responding between the last extinction session and reinstatement session were determined with paired t tests (within subjects comparison). The effects of compounds 2 on reinstatement were analyzed by a one-way analysis of variance (ANOVA) followed by post hoc Bonferroni's test (between subjects comparison). The effects of compounds 34 on reinstatement was analyzed by Student's t test. P<0.05 was considered statistically significant.

Series [4] deals with T1, human CB1 receptor. The series can be described thus: CB1 calcium mobilization assay, agonist screen. The class given is cell-based. Particulars: Table 1; 10,000 nM final concentration; mean ± SD.
Procedure: CHO-RD-HGA16 cells (Molecular Devices, CA) stably expressing the human CB1 receptor were plated into 96-well black-walled assay plates at 25,000 cells/well in 100 μL of Ham's F12 (supplemented with 10% fetal bovine serum, 100 units of penicillin/streptomycin, and 100 μg/mL Normocin) and incubated overnight at 37° C., 5% CO2. Calcium 5 dye (Molecular Devices, CA) was reconstituted according to the manufacturer's instructions. The reconstituted dye was diluted 1:40 in prewarmed (37° C.) assay buffer (1×HBSS, 20 mM HEPES, 2.5 mM probenecid, pH 7.4 at 37° C.). Growth medium was removed, and the cells were gently washed with 100 μL of prewarmed (37° C.) assay buffer. The cells were incubated for 45 min at 37° C., 5% CO2 in 200 μL of the diluted Calcium 5 dye solution. […] Serial dilutions of the test compounds were prepared at 10× the desired final concentration in 2.25% BSA/4.5% DMSO/4.5% EtOH/assay buffer. After the dye loading incubation period, the cells were pretreated with 25 μL of the test compound serial dilutions and incubated for 15 min at 37° C. After the pretreatment incubation period, the plate was read with a FLIPR Tetra (Molecular Devices, CA). Calcium-mediated changes in fluorescence were monitored every 1 s over a 90 s time period, with the Tetra adding 25 μL of the CP55,940 EC80 concentration at the 10s time point (excitation/emission: 485/525 nm). Relative fluorescence units (RFU) were plotted against the log of compound concentrations. Data were fit to a three-parameter logistic curve to generate IC50 values (GraphPad Prism 6.0, CA). […] For agonist screens, the above procedure was followed except that cells were pretreated with 2.25% BSA/4.5% DMSO/4.5% EtOH/assay buffer and the Tetra added single concentration dilutions of the test compounds prepared at 10× the desired final concentration in 0.25% BSA/0.5% DMSO/0.5% EtOH/assay buffer. Test compound RFUs were compared to the CP55,940 Emax RFUs to generate % Emax values.
In another series the target is T2, CB1 receptor (Mus musculus, UniProt P47746).
T2 construct: from tissue; host or cells: cerebellar membranes of adult male CD-1 mice
T2 sequence (P47746 whole entry): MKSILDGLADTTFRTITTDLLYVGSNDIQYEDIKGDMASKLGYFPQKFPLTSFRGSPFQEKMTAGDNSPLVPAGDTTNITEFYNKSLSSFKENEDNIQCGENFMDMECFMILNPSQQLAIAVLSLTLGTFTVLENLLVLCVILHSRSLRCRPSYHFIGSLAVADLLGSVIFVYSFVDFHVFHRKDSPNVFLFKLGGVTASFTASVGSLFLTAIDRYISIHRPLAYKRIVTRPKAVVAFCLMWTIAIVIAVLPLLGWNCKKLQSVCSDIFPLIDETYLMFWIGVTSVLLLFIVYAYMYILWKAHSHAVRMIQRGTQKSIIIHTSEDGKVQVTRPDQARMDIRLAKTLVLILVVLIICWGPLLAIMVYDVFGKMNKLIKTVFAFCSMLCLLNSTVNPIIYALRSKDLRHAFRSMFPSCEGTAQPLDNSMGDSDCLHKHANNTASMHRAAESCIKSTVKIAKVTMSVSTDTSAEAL
The series can be described thus: [35S]GTP-γ-S binding assay in mouse cerebellar membranes, CP55,940-stimulated. The class given is biochemical. Particulars: for IC50: CP55,940 (100 nM) stimulation, mean (95% confidence interval).

The mark [5] stands for this setting: pretreatment 10 min prior to cocaine prime 10 mg/kg i.p.

T1 sequence (P21554 whole entry): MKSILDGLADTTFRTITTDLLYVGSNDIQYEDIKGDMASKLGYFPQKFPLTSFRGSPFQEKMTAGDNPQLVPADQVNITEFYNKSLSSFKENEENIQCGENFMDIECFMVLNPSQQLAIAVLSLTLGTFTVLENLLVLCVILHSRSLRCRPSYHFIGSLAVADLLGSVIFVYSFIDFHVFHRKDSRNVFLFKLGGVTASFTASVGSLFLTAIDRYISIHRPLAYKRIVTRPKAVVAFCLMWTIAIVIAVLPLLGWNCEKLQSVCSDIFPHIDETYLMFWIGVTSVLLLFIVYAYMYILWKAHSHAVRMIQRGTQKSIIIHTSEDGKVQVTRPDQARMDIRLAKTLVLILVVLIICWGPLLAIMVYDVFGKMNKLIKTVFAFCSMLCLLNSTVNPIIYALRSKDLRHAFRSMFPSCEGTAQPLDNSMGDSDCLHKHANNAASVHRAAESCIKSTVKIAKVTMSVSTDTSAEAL

Broadly, the IC50 is the point on the concentration scale where inhibition reaches its midpoint. As usually defined, the half-life is the time needed for the level to fall by half in the phase considered. A low value points to fast loss. On to `O=C(Nc1ccc(Cl)cc1)Nc1cccc(-c2ccc(F)cc2)c1` [Compound 34, 3-(4-Chlorophenyl)-1-[3-(4-fluorophenyl)phenyl]urea], for which the results for the half-maximal inhibitory concentration (IC50) at human CB1 receptor [1] and at CB1 receptor were 23 ± 2 nM and 151 nM, respectively. In addition, the half-life in series [2] (pH 7.4, 0.5 mg/mL, NADPH, 37° C., mean ± S.E.M.) is greater than 5 h. Also, the microsomal CLint in series [2] (pH 7.4, 0.5 mg/mL, NADPH, 37° C., mean ± S.E.M., read-out: Clearance) is less than 4.6 µL/min/mg. For the same molecule, the “Attenuation of cocaine-induced reinstatement of cocaine-seeking behavior” value in series [3] (dose 10 mg/kg, cocaine prime 10 mg/kg i.p.) is listed as “produced the same degree of attenuation as that of 30 mg/kg of B”; in series [3] (setting [5]) it was “attenuated the resumption of extinguished cocaine-seeking behavior”. In addition, the “CB1 calcium assay Agonist screen (% CP55, 940 Emax)” value on human CB1 receptor [4] was 8.8 ± 1.1 % CP55, 940 Emax.

For `O=C(Nc1ccc(Cl)cc1)Nc1cccc(-c2ccncc2)c1` [Compound 20, 3-(4-Chlorophenyl)-1-[3-(pyridin-4-yl)phenyl]urea], the values for the IC50 at human CB1 receptor [1] and at CB1 receptor were 178 ± 38 nM and 407 nM, respectively. This molecule also had a Clearance in series [2] (0.5 mg/mL, NADPH, 37° C., mean ± S.E.M.) of 33.1 ± 1.0 µL/min/mg. Moreover, in series [2] (half-life vs B), the “Increase in metabolic stability relative to B” value was roughly 3 fold. On human CB1 receptor [4], the “CB1 calcium assay Agonist screen (% CP55, 940 Emax)” value is 14.5 ± 2.5 % CP55, 940 Emax.

Consider `Cc1cc(-c2cccc(NC(=O)Nc3ccc(Cl)cc3)c2)cs1` [Compound 49, 3-(4-Chlorophenyl)-1-[3-(5-methylthiophen-3-yl)phenyl]urea], for which the values for the IC50 on human CB1 receptor [1] and at CB1 receptor were 40 ± 4 nM and 776 nM, respectively. In addition, the “CB1 calcium assay Agonist screen (% CP55, 940 Emax)” value on human CB1 receptor [4] was 3.7 ± 1.7 % CP55, 940 Emax.

In the case of `O=C(Nc1ccc(Cl)cc1)Nc1cccc(-c2cscn2)c1` [Compound 52, 3-(4-Chlorophenyl)-1-[3-(1,3-thiazol-4-yl)phenyl]urea], the IC50 at human CB1 receptor [1] was determined as 84 ± 6 nM; on CB1 receptor, 250 nM. For the same molecule, the “CB1 calcium assay Agonist screen (% CP55, 940 Emax)” value on human CB1 receptor [4] is on record as 8.6 ± 4.4 % CP55, 940 Emax.

In the case of `O=C(Nc1ccc(Cl)cc1)Nc1cccc(-c2cccc(N3CCCC3)n2)c1` [Compound B, 1-(4-Chlorophenyl)-3-{3-[6-(pyrrolidin-1-yl)pyridin-2-yl]phenyl}urea, reference compound], the “Attenuation of cocaine-induced reinstatement of cocaine-seeking behavior” value in series [3] (dose 30 mg/kg, cocaine prime 10 mg/kg i.p.) is “significantly reduced cocaine-induced reinstatement behavior”; in series [3] (setting [5]), “dose-dependently attenuated; also recorded: attenuated the resumption of extinguished cocaine-seeking behavior”. Further, on human CB1 receptor [4], the “CB1 calcium assay Agonist screen (% CP55, 940 Emax)” value is given as 28.2 ± 4.8 % CP55, 940 Emax. The molecule further came in with an IC50 on CB1 receptor of 102 nM. Moreover, on CB1 receptor (CP55,940 as agonist probe), the “Effect on [35S]GTP-γ-S binding level” value is listed as “dose-dependently decreased”.
